# Measured values: patent US20120328638A1, “MYBL2 PEPTIDES AND VACCINES CONTAINING THE SAME” (Onco Therapy Science, Inc., priority 2009, published 2012)
# “Also recorded” adds a separate entry of the source. Ends that are not written are not given here.
# Columns and labels:
# peptide-pulsed T2 cells = experiment: IFN-gamma ELISPOT assay of peptide specific CTL activity after in vitro CTL induction; assay type: cell-based, human; details: against peptide-pulsed T2 cells compared with control not pulsed; PBMCs of HLA-A*0201 positive donor; day 21
# Description: Monocyte-derived dendritic cells (DCs) were used as antigen-presenting cells (APCs) to induce cytotoxic T lymphocyte (CTL) responses against peptides presented on human leukocyte antigen (HLA). DCs were generated in vitro as described elsewhere (Nakahara S et al., Cancer Res 2003 Jul. 15, 63(14): 4112-8). Specifically, peripheral blood mononuclear cells (PBMCs) isolated from a normal volunteer (HLA-A*0201 positive) by Ficoll-Plaque (Pharmacia) solution were separated by adherence to a plastic tissue culture dish (Becton Dickinson) so as to enrich them as the monocyte fraction. The monocyte-enriched population was cultured in the presence of 1000 U/ml of granulocyte-macrophage colony-stimulating factor (R&D System) and 1000 U/ml of interleukin (IL)-4 (R&D System) in AIM-V Medium (Invitrogen) containing 2% heat-inactivated autologous serum (AS). After 7 days of culture, the cytokine-induced DCs were pulsed with 20 microgram/ml of each of the synthesized peptides in the presence of 3 microgram/ml of beta 2-microglobulin for 3 hrs at 37 degrees C. in AIM-V Medium. The generated cells appeared to express DC-associated molecules, such as CD80, CD83, CD86 and HLA class II, on their cell surfaces (data not shown). […]
# [1] = test system: COS7 cells transfected with MYBL2 and HLA-A*0201; experiment: Specific CTL activity against target cells exogenously expressing MYBL2 and HLA-A*0201; assay type: cell-based, African green monkey
# Description: The cDNA encoding an open reading frame of target genes or HLA-A*0201 was amplified by PCR. The PCR-amplified product was cloned into expression vector. The plasmids were transfected into COS7, which is the target genes and HLA-A*0201-null cell line, using lipofectamine 2000 (Invitrogen) according to the manufacturer's recommended procedures. After 2 days from transfection, the transfected cells were harvested with versene (Invitrogen) and used as the stimulator cells (5×10^4 cells/well) for CTL activity assay.
# The established CTL clone raised against MYBL2-A02-9-144 (SEQ ID NO: 3) was examined for the ability to recognize target cells that express MYBL2 and HLA-A*0201 molecule. […] COS7 cells transfected with either full length of MYBL2 or HLA-A* 0201 were prepared as the controls.
# [2] = test system: target cells pulsed with the corresponding peptide (T2); experiment: IFN-gamma ELISA assay of established CTL line and CTL clone; assay type: cell-based, human
# Experimental: CTLs were expanded in culture using the method similar to the one described by Riddell et al. (Walter E A et al., N Engl J Med 1995 Oct. 19, 333(16): 1038-44; Riddell S R et al., Nat Med 1996 February, 2(2): 216-23). A total of 5×10^4 CTLs were suspended in 25 ml of AIM-V/5% AS medium with 2 kinds of human B-lymphoblastoid cell lines, inactivated by Mitomycin C, in the presence of 40 ng/ml of anti-CD3 monoclonal antibody (Pharmingen). One day after initiating the cultures, 120 IU/ml of IL-2 were added to the cultures. The cultures were fed with fresh AIM-V/5% AS medium containing 30 IU/ml of IL-2 on days 5, 8 and 11 (Tanaka H et al., Br J Cancer 2001 Jan. 5, 84(1): 94-9; Umano Y et al., Br J Cancer 2001 Apr. 20, 84(8): 1052-7; Uchida N et al., Clin Cancer Res 2004 Dec. 15, 10(24): 8577-86; Suda T et al., Cancer Sci 2006 May, 97(5): 411-9; Watanabe T et al., Cancer Sci 2005 August, 96(8): 498-506).
# The dilutions were made to have 0.3, 1, and 3 CTLs/well in 96 round-bottomed micro titer plate (Nalge Nunc International). CTLs were cultured with 1×10^4 cells/well of 2 kinds of human B-lymphoblastoid cell lines, 30 ng/ml of anti-CD3 antibody, and 125 U/ml of IL-2 in a total of 150 microliter/well of AIM-V Medium containing 5% AS. 50 microliter/well of IL-2 were added to the medium 10 days later so to reach a final concentration of 125 U/ml IL-2. […]
Sequence,IFN-gamma production of CTLs stimulated with peptide (ELISPOT) (peptide-pulsed T2 cells),Specific CTL activity of CTL clone against COS7 cells expressing both MYBL2 and HLA-A*0201 ([1]; COS7 transfected with both full length MYBL2 and HLA-A*0201),Specific CTL activity of CTL clone against control COS7 cells ([1]; COS7 transfected with either full length MYBL2 or HLA-A*0201 alone),"IFN-gamma production of CTL clone (ELISA) ([2]; CTL clone established by limiting dilution, target cells pulsed with peptide vs not pulsed)","IFN-gamma production of CTL line (ELISA) ([2]; CTL line from well #8, target cells pulsed with peptide vs without peptide pulse)"
"VLPPRQPSA [MYBL2-A02-9-355, VLPPRQPSA]",specific IFN-gamma production was not observed; also recorded: no specific IFN-gamma production was detected,–,–,–,–
"RIICEAHKV [MYBL2-A02-9-144, RIICEAHKV]",potent IFN-gamma production,potent CTL activity; also recorded: specific CTL activity,no significant specific CTL activity was detected,potent IFN-gamma production,potent IFN-gamma production
